In the assay the target is T1, TRPV6 channels (Homo sapiens, UniProt Q9H1D0).
T1 construct: expressed in transfected cells; host or cells: HEK293
T1 sequence (Q9H1D0 1-765): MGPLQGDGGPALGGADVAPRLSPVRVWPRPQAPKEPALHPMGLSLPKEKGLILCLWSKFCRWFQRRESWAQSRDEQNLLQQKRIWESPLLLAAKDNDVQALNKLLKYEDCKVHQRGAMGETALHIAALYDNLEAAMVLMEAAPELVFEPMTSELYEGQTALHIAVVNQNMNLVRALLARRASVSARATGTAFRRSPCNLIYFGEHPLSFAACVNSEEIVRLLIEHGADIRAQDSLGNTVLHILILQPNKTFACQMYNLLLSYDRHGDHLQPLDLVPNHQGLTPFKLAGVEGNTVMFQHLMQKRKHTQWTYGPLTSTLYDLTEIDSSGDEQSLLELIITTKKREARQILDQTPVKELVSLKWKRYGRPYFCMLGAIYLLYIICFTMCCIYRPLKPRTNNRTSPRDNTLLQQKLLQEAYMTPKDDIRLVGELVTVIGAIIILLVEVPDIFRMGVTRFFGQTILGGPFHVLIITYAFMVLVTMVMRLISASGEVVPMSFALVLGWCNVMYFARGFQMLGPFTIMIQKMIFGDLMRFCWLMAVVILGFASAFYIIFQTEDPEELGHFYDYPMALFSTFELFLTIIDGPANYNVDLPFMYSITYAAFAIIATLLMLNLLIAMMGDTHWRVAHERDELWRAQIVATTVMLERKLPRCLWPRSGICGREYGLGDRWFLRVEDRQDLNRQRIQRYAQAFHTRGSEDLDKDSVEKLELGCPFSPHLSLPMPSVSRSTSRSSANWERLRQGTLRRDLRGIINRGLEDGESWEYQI
The assay can be described thus: TRP Family FLIPR Assay, TRPV6. The format is cell-based. To be noted: antagonist mode; activated with 0.9 mM calcium ion; HEK293 cells; 0.003-10 μM; read-out: IC50 hTRPV6. As for the experimental part: The compound of Example 5 was tested for selectivity against a panel of Human TRP family ion channels in a TRP Family FLIPR Assay as described below. • 1. TRPC3 channels (human TRPC3 variant 1 gene, expressed in HEK293 cells). • 2. TRPC4 channels (human TRPC4 gene, expressed in HEK293 cells). • 3. TRPC5 channels (human TRPC5 gene, expressed in HEK293 cells). • 4. TRPC6 channels (human TRPC6 gene, expressed in HEK293 cells). • 5. TRPM2 channels (human TRPM2 gene, transiently expressed in HEK293 cells). • 6. TRPM3 channels (human TRPM3 gene, transiently expressed in HEK293 cells). • 7. TRPM4 channels (human TRPM4 gene, expressed in CHO cells). • 8. […]
Data acquisition was performed via the FLIPR Control software supplied with the FLIPR System (MDS-AT) and data was analyzed using Microsoft Excel (Microsoft Corp., Redmond, WA) or GraphPad Prism. […]
[formula] where Base is the response at low concentrations of test article, Max is the maximum response at high concentrations, xhalf the EC50, or IC50, the concentration of test article producing either half-maximal activation or inhibition, and rate is the Hill coefficient. […] No assumptions about the fit parameters was made; the fit parameters were determined by the algorithm.
The effect of each test article was evaluated at eight (8) concentrations: 0.003, 0.01, 0.03, 0.1, 0.3, 1, 3 and 10 μM, n≤4 wells/concentration). […]

Molecules are shown by their SMILES.

As for `CC(C)(O)c1cnc(N2C[C@@]3(CC[C@@H](F)[C@](C)(Cn4cnc5ccc(C#N)cc54)C3)OC2=O)cn1` (single isomer, unassigned) [Example 5], the IC50 was more than 10 µM.

As a reminder, the IC50 is the concentration needed to halve the response being measured.

The record behind these values is patent US12391683B2, “Therapeutic compounds and methods” (Actio Biosciences, Inc., priority 2022, dated 2025).
